Measurements: patent publication US12691065B2, “Liposome formulations for treatment of cancers and drug resistance of cancers” (NanoTech Pharma Inc., priority 2020, dated 2026)

Experiments:
MDA-MB-231(R) cells = test: MTT cytotoxicity of DOX on MDA-MB-231 versus MDA-MB-231(R); format: cell-based, human; conditions: 48-hour DOX treatment, each dose level
Description: Doxorubicin resistant cell lines of MDA-MB-231 and MCF-7 were developed in house. The resistant variants were generated by repeatedly culturing MDA-MB-231 and MCF-7 cells in the presence of 0.2 μmol/L DOX. These cells that proliferated well in the presence of doxorubicin after several passages qualified as DOX-resistant MDA-MB-231 and MCF-7 cells, which were named as MDA-MB-231(R) and MCF-7(R) cell lines, respectively. Both MDA-MB-231(R) and MCF-7(R) cell lines were characterized against non-DOX treated MDA-MB-231 and MCF-7 cell lines.
The cell seeded plate was incubated for 24 hours at 37° C. and 5% CO2 in a standard cell culture incubator before drug treatment. […] After another 24 hours of incubation, cell viability was assessed by the MTT assay following the manufacture's protocols. Relative percent survival was determined by subtracting absorbance values obtained by media-only wells from drug treated wells and then normalizing to the no-drug control wells (cell only control). The fraction of cells affected (Fa), or cell growth inhibition (%) at each drug concentration was subsequently calculated for each well. The effect of drug combinations was then calculated and processed by a software CompuSyn for drug synergy analysis. The program employs the median-effect analysis algorithm, which produces the Combination Index (CI) value as a quantitative indicator of the degree of synergy. […]

[1] = In-vivo pharmacokinetic study, intravenous; conditions: free drug solution, CD-1 mice
Description: After intravenous administration, blood was collected at multiple time points for a week by cardiac puncture (3 mice per time point) and placed into EDTA coated micro containers. The samples were centrifuged to separate plasma, and plasma was transferred to another tube.

half-life (T1/2) [1]: 30 min
SMILES: COc1cccc2c1C(=O)c1c(O)c3c(c(O)c1C2=O)C[C@@](O)(C(=O)CO)C[C@@H]3O[C@H]1C[C@H](N)[C@H](O)[C@H](C)O1.Cl [DOX, Doxorubicin hydrochloride]
cell viability of MDA-MB-231(R) compared to MDA-MB-231 (MDA-MB-231(R) cells): markedly greater
